Data published in article PMC12136031 (Science Advances, 2025).

What was measured:
TFEB = test: Immunoblot of TFEB in OC43-infected BEAS-2B cells; format: cell-based, human; details: for TFEB protein during viral infection: OC43, cotreatment with inhibitors of ubiquitin-proteasome system; for Decline in TFEB protein levels during viral infection: OC43, mTORC1 inhibition (10 nM)
[1] = target: T1, DCAF7 recombinant protein, P61962; test: streptavidin pull-down (peptide binding assay), DCAF7 immunoblot densitometry; details: chain shown with the change; n = 3; parent: est. 1.0; read off a plot
T1 chain: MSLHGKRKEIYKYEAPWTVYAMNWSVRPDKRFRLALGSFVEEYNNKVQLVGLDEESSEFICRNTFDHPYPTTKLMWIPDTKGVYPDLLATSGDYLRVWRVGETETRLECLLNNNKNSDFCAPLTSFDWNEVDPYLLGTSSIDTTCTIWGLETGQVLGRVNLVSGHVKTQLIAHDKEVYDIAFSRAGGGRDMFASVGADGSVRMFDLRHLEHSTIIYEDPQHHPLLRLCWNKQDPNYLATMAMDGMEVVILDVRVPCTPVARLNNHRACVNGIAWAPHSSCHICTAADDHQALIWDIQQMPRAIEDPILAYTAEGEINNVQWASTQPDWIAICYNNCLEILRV

For `NS(=O)(=O)OC[C@@H]1C[C@@H](n2ccc3c(N[C@H]4CCc5ccccc54)ncnc32)C[C@@H]1O` [MLN4924], the “TFEB protein during viral infection” value (TFEB) was “substantially preserved”.

With `CCC(=O)N1CCN(c2ccc(-n3c(=O)ccc4cnc5ccc(-c6cnc7ccccc7c6)cc5c43)cc2C(F)(F)F)CC1` [Torin1] the “Decline in TFEB protein levels during viral infection” value (TFEB) was “did not rescue”.

In the case of `NS(=O)(=O)OC[C@H]1C[C@@H](Nc2ccnc3cc(-c4cccc(SC(F)(F)F)c4)nn23)[C@H](O)[C@@H]1O` [TAK-243], the “TFEB protein during viral infection” value (TFEB) is reported as “substantially preserved”.

In the case of `CO[C@H]1C[C@@H]2CC[C@@H](C)[C@@](O)(O2)C(=O)C(=O)N2CCCC[C@H]2C(=O)O[C@H]([C@H](C)C[C@@H]2CC[C@@H](O)[C@H](OC)C2)CC(=O)[C@H](C)/C=C(\C)[C@@H](O)[C@@H](OC)C(=O)[C@H](C)C[C@H](C)/C=C/C=C/C=C/1C` [rapamycin], the “Decline in TFEB protein levels during viral infection” value (TFEB) is reported as “did not rescue”.

In the case of `CC(C)C[C@H](NC(=O)[C@H](CCc1ccccc1)NC(=O)CN1CCOCC1)C(=O)N[C@@H](Cc1ccccc1)C(=O)N[C@@H](CC(C)C)C(=O)[C@@]1(C)CO1` [carfilzomib], the “TFEB protein during viral infection” value (TFEB) is reported as “substantially preserved”.

For GNDAPNDPMA [Biotinylated TFEB peptide, region 136 to 145, unmodified sequence (I), P19484 S138D; S142D], the response [1] was 2.9.

GNAAPNAPMA [Biotinylated TFEB peptide, region 136 to 145, unmodified sequence (I), P19484 S138A; S142A] was tested, and the response [1] was 0.5.
